According to patent publication US9035048B2, “Tetrahydrotriazine compounds for treating diseases associated with AMPK activity” (POXEL, priority 2008, dated 2015):
Entries after “also recorded” stand apart in the source; their conditions may differ.

Columns and labels:
[1] = test system: human micro-vascular endothelial cells (HMEC-1); test: ROS production in HMEC-1; format: cell-based
Description: (§1) The efficacy of 5,6-dihydro-4-dimethylamino-2-imino-6-methyl-1,3,5-triazine was tested if once administrated (50 mg/kg/day) to drinking water of fasted Wistar rats for at least 10 days. This approach was more physiological than subcutaneous injection at elevated dose. […] The effect was observed both in rat liver (FIG. 4) and in human micro-vascular endothelial cells (HMEC; Table 2).

AMPK [2] = test: AMPK activation in muscle cells; format: cell-based; settings: different doses, FIG. 2
[3] = test system: ROS production linked to the reverse electron flux through complex I; test: ROS production in rat liver after oral administration; format: in vivo; settings: fasted Wistar rats, 50 mg/kg/day in drinking water for at least 10 days, succinate alone or with glutamate/malate
Description: as §1

synaptopodin (G1D4) = test: Glomerular synaptopodin (G1D4) fraction in the kidney of ZDF rats; format: in vivo, rat; settings: ZDF fatty rats, age 19 weeks; for Glomerular synaptopodin (G1D4) fraction, Positive Area (%): 2 × 25 mg/kg/d p.o., mean ± SEM
Description: Synaptopodin (G1D4) was detected with a monoclonal mouse IgG antibody (#61094, Progen). For each rat, 40 glomeruli out of two consecutive sections were selected at random. The synaptopodin (G1D4) positive area in the mesangium was measured with the Ariol SL-50 automated microscope (Applied Imaging Int. Ltd.) scanning sections at X20 (scale x/y: 1 pixel=0.36×0.36 μm^2) and setting a circular measure field of 2400 μm^2 in the centre of the glomerulus. The positive labeled area of synaptopodin (G1D4) was calculated as percentage of tissue area in the measure field. For each animal, the mean out of 40 glomeruli was calculated. Statistical comparisons were performed by unpaired Mann-Whitney-test. Data are mean±SEM.
The antibody clone G1D4 recognized differentiated podocytes (glomerular visceral epithelial cells).

AMPK [4] = test: AMPK activation in hepatocyte cells; format: cell-based; settings: different doses, FIG. 1
From the text: The AMPK activation in hepatocytes is given in the gel electrophoresis pictures. The supplemental diagram visualizes the degree of AMPK activation in hepatocytes quantitatively.

[5] = ob/ob and db/db mice, 8 day administration; cited from earlier work

CC1NC(=N)N=C(N(C)C)N1 (centres unmarked) [EMD008, 5,6-dihydro-4-dimethylamino-2-imino-6-methyl-1,3,5-triazine]
ROS production, H2O2 ([1]; substrate GMS, additions: None): 15.7 ± 1.4 pmol/min/10^7 HMEC-1 cells
ROS production, H2O2 ([1]; substrate GMS, additions: Rot + antimycin A (AA)): 18.6 ± 1.3 pmol/min/10^7 HMEC-1 cells
ROS production, H2O2 ([1]; substrate GMS, additions: Rotenone (Rot)): 6.9 ± 1.1 pmol/min/10^7 HMEC-1 cells
ROS production, H2O2 ([1]; substrate Glutamate + Malate (GM), additions: None): 28.4 ± 2.2 pmol/min/10^7 HMEC-1 cells
ROS production, H2O2 ([1]; substrate Glutamate + Malate (GM), additions: Rot + antimycin A (AA)): 51.4 ± 8.7 pmol/min/10^7 HMEC-1 cells
ROS production, H2O2 ([1]; substrate Glutamate + Malate (GM), additions: Rotenone (Rot)): 37.5 ± 1.5 pmol/min/10^7 HMEC-1 cells
ROS production, H2O2 ([1]; substrate Succinate (S), additions: None): 14.5 ± 1.3 pmol/min/10^7 HMEC-1 cells
ROS production, H2O2 ([1]; substrate Succinate (S), additions: Rot + antimycin A (AA)): 19.1 ± 3.2 pmol/min/10^7 HMEC-1 cells
ROS production, H2O2 ([1]; substrate Succinate (S), additions: Rotenone (Rot)): 11.4 ± 2.7 pmol/min/10^7 HMEC-1 cells
AMPK activity in muscle cells (AMPK [2]): significantly increased AMPK activity; also recorded: dose dependent and even stronger than metformin's effect
ROS production linked to the reverse electron flux through complex I [3]: time-dependently inhibited the ROS production
glomerular fraction of synaptopodin (effect of treatment in words) (synaptopodin (G1D4)): moderately increased
Glomerular synaptopodin (G1D4) fraction, Positive Area (%) (synaptopodin (G1D4)): 45 ± 3%
AMPK activation in hepatocytes (AMPK [4]): significant activation of AMPK

NC(=O)c1ncn([C@@H]2O[C@H](CO)[C@@H](O)[C@H]2O)c1N [AICAR, 5-aminoimidazole-4-caboxamide-1beta-riboside]
reduction of blood glucose [5]: 35%

CN(C)C(=N)NC(=N)N [Metformin, reference compound]
glomerular fraction of synaptopodin (effect of treatment in words) (synaptopodin (G1D4)): no effect
Glomerular synaptopodin (G1D4) fraction, Positive Area (%) (synaptopodin (G1D4)): 38 ± 4%
